Source: patent US20060264443A1, “Treatment of rheumatoid arthritis” (priority 2002, published 2006)
Like-named read-outs stand apart in the source and are kept apart here.

Columns and labels:
[1] = system: patients with active severe rheumatoid arthritis; details: for Serum C-reactive protein: normal reference range <10 mg/l; for Rheumatoid factor: normal reference range <14 IU/ml
Experimental: If grade 3 or 4 toxicity occurs at the dose of 200 mg/day, the patient is removed from the study.
On each visit complete physical check up is performed (including blood pressure, pulse, body weight) and the following parameters will be assessed:
The oral glucocorticoid dose is required to be 15 mg or less of prednisone or equivalent.
A dose-escalation scheme is used. The starting dose is 200 mg per day for 2 weeks given as one 100 mg capsule taken in the morning and another in the afternoon.
The injected joints were omitted from efficacy analyses.
The primary efficacy measures were: change in the number of tender and swollen joints among the 66 diarthrodial joints, patient assessed pain and disease activity as estimated using the visual analogue scales (VAS), change in the blood erythrocyte sedimentation rate (ESR) and the serum C-reactive protein (CRP) level, and change in the health assessment questionnaire (HAQ) score. […] Serum CRP and blood ESR are measured prior to the study and on the study weeks 2, 4, 8, and 12.

[2] = system: patient with severe RA

## CS(=O)(=O)O.Cc1ccc(NC(=O)c2ccc(CN3CCN(C)CC3)cc2)cc1Nc1nccc(-c2cccnc2)n1 [SALT I]
[1]; 2 patients who completed the 12-week study
  anti-rheumatic effect, duration: sustained during the study period
[1]; 3 patients, 200 to 400 mg/day, up to 12 weeks
  outcome measures during SALT I therapy (overall): All outcome measures improved
[1]; Patient 1, week 8, baseline 1.75
  HAQ: 1.5
[1]; Patient 1, week 8, baseline 10
  Serum C-reactive protein: 11 mg/L
[1]; Patient 1, week 8, baseline 38
  Erythrocyte sedimentation rate: 23 mm/h
[1]; Patient 1, week 8, baseline 77
  Patient-assessed disease activity (VAS): 39 mm
[1]; Patient 1, week 8, baseline 79
  Pain (VAS): 42 mm
[1]; Patient 1, week 8, baseline 197
  Rheumatoid factor: 65 IU/ml
[1]; Patient 2, week 12, baseline 1.75
  HAQ: 0.75
[1]; Patient 2, week 12, baseline 36
  Serum C-reactive protein: 12 mg/L
[1]; Patient 2, week 12, baseline 77
  Pain (VAS): 26 mm
[1]; Patient 2, week 12, baseline 96
  Patient-assessed disease activity (VAS): 35 mm
[1]; Patient 2, week 12, baseline 501
  Rheumatoid factor: 270 IU/ml
[1]; Patient 2, week 12, no baseline value
  Erythrocyte sedimentation rate: 13 mm/h
[1]; Patient 3, week 12, baseline 1.5
  HAQ: 1.1
[1]; Patient 3, week 12, baseline 28
  Erythrocyte sedimentation rate: 12 mm/h
[1]; Patient 3, week 12, baseline 37
  Pain (VAS): 22 mm
[1]; Patient 3, week 12, baseline 42
  Serum C-reactive protein: 10 mg/L
[1]; Patient 3, week 12, baseline 69
  Patient-assessed disease activity (VAS): 23 mm
[1]; Patient no. 1, during the study, from 45 min
  Morning stiffness: none
[1]; Patient no. 3, 24 weeks
  blood erythrocyte sedimentation rate: 17 mm/h
  duration of the morning stiffness: 30 min
  serum CRP level: 9 mg/L
  serum rheumatoid factor level: 139 IU/ml
[1]; Patient no. 3, 24 weeks, 400 mg o.d.
  number of swollen joints: 15
[1]; Patient no. 3, during the study (12 weeks), from 180 min
  Morning stiffness: 75 min
[1]; all 3 patients
  response of rheumatoid arthritis to treatment: responded favorably
[1]; first week of treatment, subsided below baseline during second study week
  joint pain reported by all patients: increased joint pain
[2]; January 2003, 400 mg daily, prior RA medication discontinued
  RA status: still in remission
[2]; Jun. 14, 2001
  occasional macroscopic hematuria (RA-associated glomerulonephritis): had ceased
[2]; Jun. 14, 2001, 400 mg/day, prednisone reduced to 5 mg o.d.
  patient-reported RA condition: further subjective improvement of their RA
[2]; September 2001
  RA status: still in remission
[2]; after 2 and 5 months of treatment, with prednisone 5 mg/day
  RA condition: further major improvements
[2]; after several days, with prednisone 5 mg/day, 600 mg then 400 mg/day orally
  patient-reported general condition: improved joint motility and decrease of wrist swelling
[2]; control visit April 17, 600 mg/day for nine days, pause, then 400 mg/day from April 11
  patient-reported RA condition: improved joint motility and decreased swelling particularly in the wrists
